Assay results taken from PubChem BioAssay (NCI).
Several values for one entry are separate records, joined by “and”; a condition that tells them apart may be missing. Equal entries are not always repeated.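 The compound was tested at five concentrations on cells cultured in 96-well plates, with a 48-hour exposure period. Here, GI50 denotes the concentration required for 50% inhibition of growth. TGI is the concentration that stops growth completely.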

Legend:
Test in all cases: inhibition of tumour cell growth, NCI panel, 48 h
[1] = system: HL-60(TB) leukemia
[2] = system: HOP-62 NSCLC
[3] = system: SK-MEL-28 melanoma
[4] = system: M14 melanoma
[5] = system: SF-295 CNS
[6] = system: SF-268 CNS
[7] = system: 786-0 renal
[8] = system: RXF 393 renal
[9] = system: SN12C renal
[10] = system: SF-539 CNS

Structure (SMILES)	TGI [1]	TGI [2]	TGI [3]	TGI [4]	TGI [5]	TGI [6]	TGI [7]	TGI [8]	TGI [9]	TGI [10]	GI50 [1]	GI50 [2]	GI50 [3]	GI50 [4]	GI50 [5]	GI50 [6]	GI50 [7]	GI50 [8]	GI50 [9]	GI50 [10]
N#CCCn1c(CCC(=O)Nc2ccc(Cl)cc2Cl)n[nH]c1=S	> 100 µM	> 100 µM	> 100 µM	> 100 µM	> 100 µM	> 100 µM	> 100 µM	> 100 µM	> 100 µM	> 100 µM										
CCCCCCC(=O)CC(=O)C(=O)Nc1ccccc1C	> 100 µM	> 100 µM	> 100 µM	> 100 µM	> 100 µM	> 100 µM	> 100 µM	> 100 µM	> 100 µM	> 100 µM										
Nc1nc(Cl)c2ncn(Cc3ccc(-c4ccc(CCl)cc4)cc3)c2n1	> 100 µM	34.8 µM	33.7 µM	29.4 µM	> 100 µM	36.5 µM	> 100 µM	54.4 µM	10.1 µM	26.6 µM	19.4 µM	15 µM	14.7 µM	13.3 µM	17.4 µM	16.2 µM	12.9 µM	12.1 µM	2.54 µM	10.9 µM
CCCCCCCCC(=O)NCCN(CCN)C(=O)CCCCCCCC	5.32 µM	30.6 µM	30.5 µM	22 µM	10.5 µM	17.5 µM	12.4 µM	34.1 µM	24.7 µM	15.3 µM										
CN1CCN(Cc2ccc(NC(=O)c3[nH]ncc3Nc3cc(OC4CCCC4)ncn3)cc2)CC1	4.3 µM	13.2 µM	3.87 µM	3.62 µM	12.5 µM	19 µM	3.1 µM	2.91 µM	13.8 µM	5.02 µM	1.77 µM	3.7 µM	1.78 µM	1.35 µM	2.93 µM	4.48 µM	1.35 µM	1.36 µM	3.37 µM	1.9 µM
CC(=O)Nc1cc(CN2CCCCC2)c(O)c2ncccc12	36.8 µM	> 100 µM	> 100 µM	68.2 µM	> 100 µM	79.2 µM	40.9 µM	> 100 µM	70.9 µM	> 100 µM										
O=S1(=O)C=C(c2ccccc2)C(c2ccccc2)=C1	5.21 µM	4.42 µM	3.18 µM	3.01 µM	6.3 µM	3.38 µM	2.82 µM	3 µM	3.92 µM	5.94 µM	2.14 µM	1.87 µM	1.77 µM	1.58 µM	2.06 µM	1.49 µM	1.49 µM	1.62 µM	1.79 µM	2.14 µM
CC(=O)N1c2ccc(-c3ccc(C(=O)O)cc3)cc2[C@H](Nc2ccc(Cl)cc2)C[C@@H]1C	11.1 µM	22.4 µM	34.8 µM	23.2 µM	18.1 µM	> 90.9 µM	40.2 µM	40.9 µM	99 µM	20.2 µM	0.0384 µM	0.0677 µM	0.494 µM	0.096 µM	0.477 µM	5.76 µM	0.125 µM	5.41 µM	3.89 µM	0.0622 µM
CN1C(=O)C(C)(C)Oc2c(-c3cn(C)c(=O)c4[nH]ccc34)cc(S(C)(=O)=O)cc21	0.847 µM	> 100 µM	> 100 µM	> 100 µM	> 100 µM	> 100 µM	> 100 µM	7.12 µM	> 100 µM	40.3 µM	0.281 µM	0.732 µM	3.92 µM	0.727 µM	2.68 µM	3.99 µM	2.06 µM	1.59 µM	2.68 µM	0.58 µM
CN(C)c1ccc(/C=c2\sc3nnc(Cc4ccccc4)n3c2=O)cc1	> 10 µM	> 100 µM	> 100 µM	> 100 µM	> 100 µM	> 10 µM and 57.8 µM	> 100 µM	> 10 µM and 97.3 µM	> 100 µM	> 100 µM		> 100 µM	> 100 µM	> 100 µM	> 100 µM	> 10 µM	> 100 µM	> 10 µM	> 100 µM	> 100 µM
C=C1CC(CC(=O)C(C)CC2CC(=C)C(=O)O2)OC1=O (centres undefined)	33.6 µM	> 100 µM	30.4 µM	30 µM	> 100 µM	48.6 µM	43.3 µM	37.9 µM	34.1 µM	37.7 µM										
C[C@H](c1ccc(Cl)cc1[N+](=O)[O-])N1C(=O)c2cc(I)ccc2NC(=O)[C@H]1c1ccc(Cl)cc1	> 100 µM	> 100 µM	> 100 µM	> 100 µM	> 100 µM	> 100 µM	> 100 µM	> 100 µM	> 100 µM	> 100 µM	> 100 µM	> 100 µM	> 100 µM	85.4 µM	8.18 µM	> 100 µM	> 100 µM	9.07 µM	> 100 µM	> 100 µM
CN(C)c1ccc(/C=N/NC(=O)c2cnc3ccccc3c2)cc1	> 100 µM	> 100 µM	> 100 µM	> 100 µM	> 100 µM	53.3 µM	> 100 µM	54.9 µM	> 100 µM	> 100 µM										
CCc1cccc(CC)c1NC(=O)C1=CNC(C)=C(C(=O)Nc2c(CC)cccc2CC)C1c1ccc(O)c(OC)c1 (centres undefined)	57.4 µM	86.8 µM	> 100 µM	> 100 µM	73.8 µM	> 100 µM	> 100 µM	93.9 µM	> 100 µM	51.3 µM										
CCC(=O)Oc1ccc(/C=N/NC(N)=S)nc1	> 100 µM	82.3 µM	> 100 µM	5.59 µM	> 100 µM	> 100 µM	13.7 µM	> 100 µM	> 100 µM	5.52 µM	2.17 µM	5.53 µM	34.3 µM	2.01 µM	12.3 µM	3.46 µM	3.19 µM	2.93 µM	3.75 µM	1.51 µM
